Measured values taken from US8987502B2, “Oleanolic acid amidate derivatives, preparation methods and uses thereof” (Hangzhou Bensheng Pharmaceutical Co., Ltd., priority 2011, dated 2015).
Converted amounts (≈) assume the structure as drawn. One block for each compound: values may come before it.

How the values were obtained:
NB4 = assay: MTT leukemia cell proliferation inhibition, NB4; assay type: cell-based; conditions: Homo sapiens, NB-4; for inhibition at 16 µg/mL: NB4, 16 μg/mL compound, 72 h, read-out: IR (inhibition rate); for IC50: NB4, 72 h, MTT
From the text: (§1) Leukemia cell lines: leukemia cell lines: K562/adr (drug-resistant, chronic myeloid leukemia, CML), NB4 (acute promyelocytic leukemia, AML), Kasumi-1 (acute myeloid leukemia M2 type, AML-M2), Jurkat (acute lymphoblastic leukemia, ALL), all of which are donated by Cancer Research Institute of Zhejiang University, China; and H9 (acute lymphoblastic leukemia, ALL), which is purchased from China Center for Type Culture Collection (CCTCC).
(§2) Reagents: The standard sample of oleanolic acid (OA) is purchased from Hua Kang Pharmaceutical Raw Material Factory, Shifang City, Sichuan, China; and the amidated oleanolic acid derivatives are prepared according to the present invention.
(§3) Obtaining 6000 well-growing leukemia cells and inoculating them into wells of a 96-well cell culture plate. The culture medium is the 1640 cell culture medium containing 10% fetal bovine serum. After adding the amidated oleanolic acid derivatives of different concentrations and mixing uniformly, placing the plate in a carbon dioxide cell incubator (5% CO2) at 37° C. and incubated for 72 hours. Then the relative number of viable cells is determined by the MTT method. In this experiment, the cell proliferation inhibition rate in control group (not treated with any compound) is set as 0%.

SK-OV-3 = assay: MTT solid tumor cell proliferation inhibition, SK-OV-3; assay type: cell-based, human; conditions: for inhibition at 16 µg/mL / IC50: Homo sapiens; for inhibition at 16 µg/mL: SK-OV-3, 16 μg/mL compound, 72 h, read-out: IR (inhibition rate); for IC50: SK-OV-3, 72 h, MTT
Method: (§4) Human solid tumor cell lines: Hep-2 (laryngeal carcinoma), A549 (human lung cancer), CaES-17 (esophageal cancer cell), PC-3 (prostate cancer), CNE (nasopharyngeal carcinoma cell), and SK-OV-3 (ovarian cancer cell), all of which are purchased from China Center For Type Culture Collection; RKO (human colon adenocarcinoma cell), MGC 803 (human gastric cancer cell), MG63 (osteosarcoma) and U87 MG (malignant glioma cell), all of which are purchased from Fuxiang Bio-tech Co. Ltd., Shanghai, China; PANC-1 (pancreatic cancer), Hep G2 (human liver cancer cell), Becap37 (human breast cancer cell), and Hela (human cervical cancer cell), all of which are donated by Cancer Research Institute of Zhejiang University, China.
(§5) Obtaining 4000 well-growing human solid tumor cells and inoculating them into wells of a 96-well cell culture plate. The culture medium is DMEM High Glucose cell culture medium containing 10% fetal bovine serum. The plate is placed in a carbon dioxide cell incubator (5% CO2) at 37° C. for 24 hours for incubation. After being added with the amidated oleanolic acid derivatives of different concentrations and mixed uniformly, the plate is placed in a carbon dioxide cell incubator (5% CO2) at 37° C. for 72 hours for incubation. Then the relative number of the living cells is determined by the MTT method. In this experiment, the cell proliferation inhibition rate in control group (not treated with any compound) is set as 0%.

PANC-1 = assay: MTT solid tumor cell proliferation inhibition, PANC-1; assay type: cell-based, human; conditions: for inhibition at 16 µg/mL / IC50: Homo sapiens; for inhibition at 16 µg/mL: PANC-1, 16 μg/mL compound, 72 h, read-out: IR (inhibition rate); for IC50: PANC-1, 72 h, MTT
Method: as §4, §5

RKO = assay: MTT solid tumor cell proliferation inhibition, RKO; assay type: cell-based; conditions: Homo sapiens, 72 h; for inhibition at 16 µg/mL: 16 μg/mL compound, read-out: IR (inhibition rate); for IC50: MTT
Method: as §4, §5

A549 = assay: MTT solid tumor cell proliferation inhibition, A549; assay type: cell-based, human; conditions: Homo sapiens; for inhibition at 16 µg/mL: A549, 16 μg/mL compound, 72 h, read-out: IR (inhibition rate); for IC50: A549, 72 h, MTT
Method: as §4, §5

Hela = assay: MTT solid tumor cell proliferation inhibition, Hela; assay type: cell-based, human; conditions: for inhibition at 16 µg/mL / IC50: Homo sapiens, Hela, 72 h; for inhibition at 16 µg/mL: 16 μg/mL compound, read-out: IR (inhibition rate); for IC50: MTT
Method: as §4, §5

U87 MG = assay: MTT solid tumor cell proliferation inhibition, U87 MG; assay type: cell-based, human; conditions: Homo sapiens, U-87 MG, U87 MG, 72 h; for inhibition at 16 µg/mL: 16 μg/mL compound, read-out: IR (inhibition rate); for IC50: MTT
Method: as §4, §5

Kasumi-1 = assay: MTT leukemia cell proliferation inhibition, Kasumi-1; assay type: cell-based; conditions: Homo sapiens; for inhibition at 16 µg/mL: Kasumi-1, 16 μg/mL compound, 72 h, read-out: IR (inhibition rate); for IC50: Kasumi-1, 72 h, MTT
From the text: as §1, §2, §3

Hep G2 = assay: MTT solid tumor cell proliferation inhibition, Hep G2; assay type: cell-based; conditions: Homo sapiens, HepG2; for inhibition at 16 µg/mL: Hep G2, 16 μg/mL compound, 72 h, read-out: IR (inhibition rate); for IC50: Hep G2, 72 h, MTT
Method: as §4, §5

Hep-2 = assay: MTT solid tumor cell proliferation inhibition, Hep-2; assay type: cell-based, human; conditions: Homo sapiens; for inhibition at 16 µg/mL: Hep-2, 16 μg/mL compound, 72 h, read-out: IR (inhibition rate); for IC50: Hep-2, 72 h, MTT
Method: as §4, §5

MGC803 = assay: MTT solid tumor cell proliferation inhibition, MGC803; assay type: cell-based, human; conditions: for inhibition at 16 µg/mL / IC50: Homo sapiens, MGC-803; for inhibition at 16 µg/mL: MGC803, 16 μg/mL compound, 72 h, read-out: IR (inhibition rate); for IC50: MGC803, 72 h, MTT
Method: as §4, §5

Jurkat = assay: MTT leukemia cell proliferation inhibition, Jurkat; assay type: cell-based; conditions: Homo sapiens, 72 h; for inhibition at 16 µg/mL: 16 μg/mL compound, read-out: IR (inhibition rate); for IC50: MTT
From the text: as §1, §2, §3

MG 63 = assay: MTT solid tumor cell proliferation inhibition, MG 63; assay type: cell-based, human; conditions: for IC50: Homo sapiens, MG 63, 72 h, MTT; for IR (inhibition rate): MG 63, 16 μg/mL compound, 72 h
Method: as §4, §5

CaES-17 = assay: MTT solid tumor cell proliferation inhibition, CaES-17; assay type: cell-based, human; conditions: Homo sapiens, CaEs17; for inhibition at 16 µg/mL: CaES-17, 16 μg/mL compound, 72 h, read-out: IR (inhibition rate); for IC50: CaES-17, 72 h, MTT
Method: as §4, §5

K562/adr = assay: MTT leukemia cell proliferation inhibition, K562/adr; assay type: cell-based; conditions: Homo sapiens, 72 h; for inhibition at 16 µg/mL: 16 μg/mL compound, read-out: IR (inhibition rate); for IC50: MTT
From the text: as §1, §2, §3

Becap37 = assay: MTT solid tumor cell proliferation inhibition, Becap37; assay type: cell-based; conditions: Homo sapiens; for inhibition at 16 µg/mL: Becap37, 16 μg/mL compound, 72 h, read-out: IR (inhibition rate); for IC50: Becap37, 72 h, MTT
Method: as §4, §5

CNE = assay: MTT solid tumor cell proliferation inhibition, CNE; assay type: cell-based, human; conditions: for inhibition at 16 µg/mL / IC50: Homo sapiens, CNE, 72 h; for inhibition at 16 µg/mL: 16 μg/mL compound, read-out: IR (inhibition rate); for IC50: MTT
Method: as §4, §5

RPMI8226 = assay: MTT multiple myeloma cell proliferation inhibition, RPMI8226; assay type: cell-based; conditions: Homo sapiens, RPMI-8226; for inhibition at 16 µg/mL: RPMI8226, 16 μg/mL compound, 72 h, read-out: IR (inhibition rate); for IC50: RPMI8226, 72 h, MTT
Method: Multiple myeloma cell lines: RPMI8226 (multiple myeloma), purchased from Fuxiang Bio-tech Co. Ltd., Shanghai, China.
as §3

H9 = assay: MTT leukemia cell proliferation inhibition, H9; assay type: cell-based, human; conditions: for inhibition at 16 µg/mL / IC50: Homo sapiens; for inhibition at 16 µg/mL: H9, 16 μg/mL compound, 72 h, read-out: IR (inhibition rate); for IC50: H9, 72 h, MTT
From the text: as §1, §2, §3

PC-3 = assay: MTT solid tumor cell proliferation inhibition, PC-3; assay type: cell-based, human; conditions: Homo sapiens; for inhibition at 16 µg/mL: PC-3, 16 μg/mL compound, 72 h, read-out: IR (inhibition rate); for IC50: PC-3, 72 h, MTT
Method: as §4, §5

IC50 (NB4): 11.2 µg/mL (≈ 19.7 µM)
IC50 (SK-OV-3): 10.1 µg/mL (≈ 17.8 µM)
IC50 (PANC-1): 14.7 µg/mL (≈ 25.9 µM)
IC50 (RKO): 14.7 µg/mL (≈ 26 µM)
IC50 (A549): > 16 µg/mL
IC50 (Hela): 9.43 µg/mL (≈ 16.6 µM)
IC50 (U87 MG): > 16 µg/mL
IC50 (Kasumi-1): > 16 µg/mL
IC50 (Hep G2): 18.5 µg/mL (≈ 32.6 µM)
IC50 (Hep-2): > 16 µg/mL
IC50 (MGC803): 13.6 µg/mL (≈ 23.9 µM)
IC50 (Jurkat): 15.3 µg/mL (≈ 27 µM)
IC50 (MG 63): 13.8 µg/mL (≈ 24.3 µM)
IC50 (CaES-17): > 16 µg/mL
IC50 (K562/adr): 8.53 µg/mL (≈ 15 µM)
IC50 (Becap37): > 16 µg/mL
IC50 (CNE): 14 µg/mL (≈ 24.7 µM)
IC50 (RPMI8226): 9.2 µg/mL (≈ 16.2 µM)
IC50 (H9): 10.7 µg/mL (≈ 18.9 µM)
IC50 (PC-3): 18.3 µg/mL (≈ 32.2 µM)
Structure (SMILES): CC1(C)CC[C@]2(NC(=O)c3cccnc3Cl)CC[C@]3(C)C(=CC[C@@H]4[C@@]5(C)CC[C@H](O)C(C)(C)[C@@H]5CC[C@]43C)[C@@H]2C1 [BS-OA-096]
inhibition at 16 µg/mL (NB4): 100%
inhibition at 16 µg/mL (SK-OV-3): 97%
improvement of cell inhibition rate as compared with oleanolic acid (SK-OV-3; SKOV-3 cells): > 12 fold
inhibition at 16 µg/mL (PANC-1): 59.1%
improvement of inhibition rate as compared with oleanolic acid (PANC-1; PANC-1 cells): ~7 fold
inhibition at 16 µg/mL (RKO): 59.4%
inhibition at 16 µg/mL (A549): 18.7%
improvement of inhibition rate as compared with oleanolic acid (Hela; Hela cells): ~4 fold
inhibition at 16 µg/mL (Hela): 88.9%
inhibition at 16 µg/mL (U87 MG): 38.5%
inhibition at 16 µg/mL (Kasumi-1): 33.6%
inhibition at 16 µg/mL (Hep G2): 40.1%
inhibition at 16 µg/mL (Hep-2): 20.6%
inhibition at 16 µg/mL (MGC803): 70%
improvement of inhibition rate as compared with oleanolic acid (MGC803; MGC803 cells): ~3 fold
inhibition at 16 µg/mL (Jurkat): 55.3%
IR (inhibition rate) (MG 63): 78.1%
inhibition at 16 µg/mL (CaES-17): 39.8%
inhibition at 16 µg/mL (K562/adr): 81.9%
inhibition at 16 µg/mL (Becap37): 39.3%
improvement of inhibition rate as compared with oleanolic acid (CNE; CNE cells): ~2 fold
inhibition at 16 µg/mL (CNE): 63.9%
inhibition at 16 µg/mL (RPMI8226): 96.9%
improvement of cell inhibition rate as compared with oleanolic acid (H9; H9 cells): ~4 fold
inhibition at 16 µg/mL (H9): 84%
inhibition at 16 µg/mL (PC-3): 48.1%

IC50 (NB4): 8.2 µg/mL (≈ 15.4 µM)
IC50 (SK-OV-3): > 16 µg/mL
IC50 (PANC-1): > 16 µg/mL
IC50 (RKO): > 16 µg/mL
IC50 (A549): > 16 µg/mL
IC50 (Hela): 15.8 µg/mL (≈ 29.8 µM)
IC50 (U87 MG): > 16 µg/mL
IC50 (Kasumi-1): 15.4 µg/mL (≈ 29 µM)
IC50 (Hep G2): > 16 µg/mL
IC50 (Hep-2): > 16 µg/mL
IC50 (MGC803): > 16 µg/mL
IC50 (Jurkat): > 16 µg/mL
IC50 (MG 63): > 16 µg/mL
IC50 (CaES-17): > 16 µg/mL
IC50 (K562/adr): 6.29 µg/mL (≈ 11.8 µM)
IC50 (Becap37): > 16 µg/mL
IC50 (CNE): > 16 µg/mL
IC50 (RPMI8226): 6.49 µg/mL (≈ 12.2 µM)
IC50 (H9): 14 µg/mL (≈ 26.3 µM)
IC50 (PC-3): 19.9 µg/mL (≈ 37.4 µM)
Structure (SMILES): CC1(C)CC[C@]2(NC(=O)c3ccccc3)CC[C@]3(C)C(=CC[C@@H]4[C@@]5(C)CC[C@H](O)C(C)(C)[C@@H]5CC[C@]43C)[C@@H]2C1 [BS-OA-101]
inhibition at 16 µg/mL (NB4): 96.1%
inhibition at 16 µg/mL (SK-OV-3): 39.7%
inhibition at 16 µg/mL (PANC-1): 20.6%
inhibition at 16 µg/mL (RKO): 22.5%
inhibition at 16 µg/mL (A549): 37.6%
inhibition at 16 µg/mL (Hela): 57%
inhibition at 16 µg/mL (U87 MG): 36.4%
inhibition at 16 µg/mL (Kasumi-1): 53.8%
inhibition at 16 µg/mL (Hep G2): 16.1%
inhibition at 16 µg/mL (Hep-2): 7.5%
inhibition at 16 µg/mL (MGC803): 33.2%
inhibition at 16 µg/mL (Jurkat): 30%
IR (inhibition rate) (MG 63): 17.3%
inhibition at 16 µg/mL (CaES-17): 25.8%
inhibition at 16 µg/mL (K562/adr): 88.7%
inhibition at 16 µg/mL (Becap37): 18.1%
inhibition at 16 µg/mL (CNE): 36.2%
inhibition at 16 µg/mL (RPMI8226): 97.5%
inhibition at 16 µg/mL (H9): 58.7%
inhibition at 16 µg/mL (PC-3): 45.7%
